The text below walks through data of US10350231B2, “Use of cladribine for treating autoimmune inflammatory disease” (Chord Therapeutics S.a.r.l., priority 2014, dated 2019).

For data set [1], the system named is NMO patients. To be noted: cited from earlier work.
Data set [2] has as its system neuromyelitis optica (NMO) patient. Nature of the data set: Case report of off-label treatment of NMO patient with cladribine. In kind it is in vivo, human. As to the method:
A person presented with acute visual symptoms and optic neuritis with normal head MRI. Episodic visual symptoms recurred with increasing severity up to complete blindness in one eye and episodes of deterioration in the other. Some response to methylprednisolone was noted. The diagnostic test for NMO-IgG (ELISA) was positive and brain MRI had no focal lesions.
20 mg of cladribine were administered subcutaneously to the patient on each of five dosing days, with one month or more separating the dosing days. On a dosing day, two vials were used each containing 10 ml of a solution of cladribine as shown in Example 2. Eight subcutaneous sites were used, each receiving an injection of 2.5 ml.
At the end of nine months blindness was complete bilaterally but motor and sensory functions were normal. […] After 2 years the patient was admitted with motor, sensory and autonomic symptoms. Based on new symptoms, abnormalities on spinal cord MRI and the previous NMO-IgG test the diagnosis was confirmed as neuromyelitis optica. After 3 months there was partial improvement but remaining mild paraparesis.
Prior to cladribine treatment this patient experienced five episodes of worsening over four years (estimated annual relapse rate of 1.46). The intervening remission periods were 13, 15, 6 and 6 months. From initiation of an 8-month course of cladribine treatment they experienced 34 months of stable condition without reported relapses, followed by subsequent deterioration and other treatments.

The subject of data set [3] is T-lymphocytes from NMO patients. Put plainly: In vitro viability response of lymphocytes derived from NMO patients to cladribine. In kind it is cell-based, human. To be noted: cladribine 1×10^−9M to 1×10^−4M, e.g. four days; with or without anti-CD3/anti-CD28; compared with healthy donors.
Description: Using the methods described in Laugel B. et al., J. Neuroimmunol.; (2011); 240-241; 52-57 peripheral blood mononuclear cells (PBMCs) are first isolated from blood obtained from healthy donors and NMO patients, for example by ficoll gradient centrifugation. T-lymphocytes are further purified from these PBMCs, by for example magnetic bead separation using a pan-T cell reagents, or CD4 reagents. […] To determine the cells' viability response to cladribine, identical numbers of lymphocytes purified from both healthy donor and NMO patients are cultured with one of a number of cladribine concentrations, ranging from for example one nanomolar to one hundred micromolar (1×10^−9M to 1×10^−4M), or without any cladribine. After a period of several days, for example four days, the fraction of live cells is determined, for example by annexin V staining or trypan blue staining. This experiment is done either under stimulated conditions (that is, with the addition of anti-CD3 and anti-CD28 antibodies in all cultures, as below) or without these stimulating antibodies.
The subject of data set [4] is T lymphocytes from NMO patients. Nature of the data set: Stimulated (anti-CD3/anti-CD28) cytokine secretion by T lymphocytes from NMO patients. The data set is classed as cell-based, human. The following applies: cladribine 1×10^−9M to 1×10^−4M, supernatants e.g. 24 hours, compared with healthy donors. The source says: Using the methods described in Laugel B. et al., J. Neuroimmunol.; (2011); 240-241; 52-57 peripheral blood mononuclear cells (PBMCs) are first isolated from blood obtained from healthy donors and NMO patients, for example by ficoll gradient centrifugation. T-lymphocytes are further purified from these PBMCs, by for example magnetic bead separation using a pan-T cell reagents, or CD4 reagents. The purified lymphocytes are maintained in culture using standard methods and reagents, for example RPMI-1640 growth medium.
To determine the effect of cladribine on stimulated cytokine secretion by T lymphocytes from NMO patients, identical numbers of purified lymphocytes purified from both healthy donor and NMO patients are pre-incubated for less than one hour in medium containing one of a number of cladribine concentrations, ranging from for example one nanomolar to one hundred micromolar (1×10^−9M to 1×10^−4M), or without added cladribine. Cells are then transferred, with their cladribine-containing or control medium, to the wells of culture plates coated with anti-CD3 antibody, and soluble anti-CD28 antibody is added. Secreted cytokines in culture supernatants collected after, for example, 24 hours, are determined by one of several standard methods including bead-based cytometric cytokine assay and enzyme-linked immunosorbent assay. […]

For data set [5], the target named is A2A (adenosine receptor class 2a) (Homo sapiens, UniProt P29274). The following applies: cited from earlier work.
A2A (adenosine receptor class 2a), sequence (P29274 whole entry): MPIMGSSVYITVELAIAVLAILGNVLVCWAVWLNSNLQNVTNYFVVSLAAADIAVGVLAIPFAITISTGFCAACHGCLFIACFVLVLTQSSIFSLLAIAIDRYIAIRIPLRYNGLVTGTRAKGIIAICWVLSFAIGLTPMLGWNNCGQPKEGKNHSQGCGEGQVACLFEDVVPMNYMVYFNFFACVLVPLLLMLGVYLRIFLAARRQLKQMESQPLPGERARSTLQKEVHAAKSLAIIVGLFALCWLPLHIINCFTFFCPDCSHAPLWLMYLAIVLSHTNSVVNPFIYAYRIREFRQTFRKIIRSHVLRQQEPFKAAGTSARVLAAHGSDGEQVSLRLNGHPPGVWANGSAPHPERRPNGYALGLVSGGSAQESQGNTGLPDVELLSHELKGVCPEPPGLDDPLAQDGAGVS
Data set [6] relates to human lymphocytes. The following applies: phosphorylation by CK blocked, lymphocyte death does not occur; cited from earlier work.
Data set [7] concerns IgM associated inflammatory peripheral neuropathy patient. The following applies: intravenous infusion, two courses of cladribine, cited from earlier work.

“Also recorded” adds a separate entry of the source.

As for Glatiramer acetate, the “effect on NMO” value in data set [1] was “has not been found to be effective”.

On to `O=C1c2c(O)ccc(O)c2C(=O)c2c(NCCNCCO)ccc(NCCNCCO)c21` [mitoxantrone], for which, in data set [2] (same patient, after relapse following cladribine, impaired walking, neurogenic bladder, blindness), the “disease course under mitoxantrone” value is “progressive deterioration”.

Regarding `Nc1nc(Cl)nc2c1ncn2[C@H]1C[C@H](O)[C@@H](CO)O1` [cladribine, 2-chloro-2′-deoxyadenosine], the “disease course after cladribine treatment” value in data set [2] (one NMO patient, single course 100 mg s.c., no further immunosuppressant treatment) is given as “two years without noted deterioration; also recorded: stabilization of the disease course for over two years”. For the same compound, the “adverse events attributed to cladribine” value in data set [2] (one NMO patient, total 100 mg cladribine s.c.) was “No adverse events attributed to cladribine were reported”. Besides, in data set [2] (one NMO patient, total 100 mg cladribine s.c., from initiation of an 8-month course), the “stable condition without reported relapses” value is listed as 34 months. For the same compound, in data set [2] (short period of treatment (several weeks)), the “period of beneficial effects on the disease without retreatment” value is “over 18 months”. In data set [3], the “viability (fraction of live cells) of lymphocytes from NMO patients” value was “die over several days in a manner and to an extent similar to those purified from healthy donors”. Also, in data set [4], the “secretion of cytokines by lymphocytes from NMO patients” value is “inhibited by cladribine in a manner and to a degree similar to the inhibition seen in lymphocytes from healthy donors”. Moreover, the “affinity at A2A receptors” value in data set [5] is recorded as “binds with high affinity”. Besides, in data set [6], the induced cytokine production result is reported as “decreased”. Besides, the IgM antibody levels entry in data set [7] is “IgM levels declined slowly over a period of more than one year”. Also, the symptoms result in data set [7] (maintained for several years) is “symptomatic improvement”.
